“Also recorded” adds a separate entry of the source.
Tests used:
[1] = system: cholesterol-fed Sprague Dawley rat; assay: Single oral dose, plasma cholesterol lowering in cholesterol-fed rat; format: in vivo; conditions: 24 hours
Description: Compound I was tested to determine the cholesterol lowering efficacy and potency of Compound I following oral administration of single dose to a standard rodent model of hypercholesterolemia, the cholesterol-fed Sprague Dawley rat.
Male Sprague Dawley rats were obtained from Harlan (Livermore, Calif.) at a body weight of 250 g, caged 3 rats/cage, and housed under a 12 h:12 h, light:dark cycle (lights on at 7 AM). Pelleted 5001 chow containing 1.5% cholesterol and 0.5% cholic acid (Harlan Teklad, Indianapolis, Ind.) was provided for 2 weeks prior to the initiation of treatment. Food and water were provided ad libitum.
Compound I was dissolved in 100% PEG-400. […]
Male Sprague Dawley rats (˜250 g) were fed a diet containing 1.5% cholesterol and 0.5% cholic acid for 2 weeks prior to the initiation of treatment. Compound I was administered as an oral solution in PEG-400 and phosphate buffered saline, respectively, at doses ranging from 0.3 to 100 mg/kg Compound I. Thyroid hormone T3 (0.1 mg/kg) was evaluated as a positive control. […]
Plasma was prepared from the blood samples by centrifugation in an Eppendorf Microfuge (14,000 rpm, 2 min, room temperature). Total plasma cholesterol was measured using the Infinity cholesterol reagent (Thermo Electron Corporation, Waltham, Mass.) and a standard curve prepared with a 300 mg/dL cholesterol standard. […]

[2] = system: beagle dogs; assay: Once-daily oral administration for 14 days, total plasma cholesterol in beagle dogs; format: in vivo, dog; conditions: 14 days once-daily oral, 0.1-10 mg/kg/day
Description: (§1) The effects of once-daily oral administration of Compound I on plasma cholesterol levels and thyroid function indicators in beagle dogs were evaluated for 14 days.
(§2) Male and female beagle dogs were purchased from Marshall Farms (North Rose, N.Y.) at approximately 9-15 kg in body weight. Animals were housed individually under a 12 hour lighting cycle (7 am-7 pm light) and controlled temperature (˜22° C.). The dogs were fed twice-daily with Teklad 8563 chow (Harlan Teklad, Madison, Wis.) and allowed water ad libitum.
Compound I was dissolved in 100% PEG-400. The formulation was prepared just prior to initiation of treatment and stored at 4° C. […]
(§3) Twelve beagle dogs (9-15 kg) were randomized into 6 dosing groups (1 male and 1 female/group) and gavaged once-daily with a PEG-400 solution of Compound I at doses of 0.1, 0.3, 1, 3, or 10 mg/kg or with vehicle for 14 days. […] Blood samples were collected at baseline and appropriate time intervals thereafter and analyzed for total plasma cholesterol levels, serum levels of total T4 (tT4), free T4 (fT4), total T3 (tT3), free T3 (fT3), thyroid stimulating hormone (TSH), and plasma drug levels.
Total plasma cholesterol was measured using an Infinity cholesterol reagent (Thermo Electron Corporation, Waltham, Mass.) and with use of a standard curve prepared from a 300 mg/dL cholesterol standard. […]

[3] = system: beagle dogs; assay: Once-daily oral administration for 14 days, thyroid function tests (tT4, fT4, tT3, fT3, TSH) in beagle dogs; format: in vivo, dog
Description: as §1, §2
Compound I was dissolved in 100% PEG-400. The formulation was prepared just prior to initiation of treatment and stored at 4° C. A fresh formulation was prepared for each 7 day treatment period.
Twelve beagle dogs (9-15 kg) were randomized into 6 dosing groups (1 male and 1 female/group) and gavaged once-daily with a PEG-400 solution of Compound I at doses of 0.1, 0.3, 1, 3, or 10 mg/kg or with vehicle for 14 days. At the end of the treatment cycle (Cycle 1), the dogs were washed out for 6 weeks and then entered into a second 14-day treatment cycle. Cycle 2 employed the same dosing paradigm as Cycle 1, but animals were randomized to Cycle 2 in such a way that the combined dosing groups from the two cycles each consisted of 4 different animals (2 males, 2 females). Blood samples were collected at baseline and appropriate time intervals thereafter and analyzed for total plasma cholesterol levels, serum levels of total T4 (tT4), free T4 (fT4), total T3 (tT3), free T3 (fT3), thyroid stimulating hormone (TSH), and plasma drug levels.
Serum samples were shipped on dry ice to the Diagnostic Center for Population and Animal Health (Lansing, Mich.) and assayed for total T4 (tT4), free T4 (fT4), total T3 (tT3), free T3 (fT3), and thyroid stimulating hormone (TSH). Average values±the standard error of the mean (SEM) were calculated for all treatment groups.

[4] = system: rat; assay: Pilot rat 28-day safety study; conditions: 28 days; 1 and 5 mg/kg per day
Description: Two doses were tested, 1 mg/kg per day and 5 mg/kg per day. […] The mice were sacrificed on day 29 and then analyzed for clinical signs, BW, FC Clinical pathology (including TSH, T3, T4), gross pathology, organ weights, histopathology, toxicokinetics.

[5] = system: beagle dogs; assay: Comparison of Compound I and MB07811: cholesterol, tT4 and TSH in beagle dogs; format: in vivo, dog
Description: Compound I was compared with Compound MB07811 with respect to their efficacy in lowering cholesterol and their effects on the total T4 (tT4) and thyroid stimulating hormone (TSH).
Compound I and Compound MB07811 were tested to determine the effects of oral administration of each compound once-daily for 14 days followed by alternate day dosing for 14 days on plasma cholesterol levels and indicators of thyroid function in beagle dogs.
as §2, with “Beagle” for “beagle”, “kg.” for “kg in body weight.”, “12-hour” for “12 hour”, “twice daily” for “twice-daily”
MB07811 was administered as a suspension in 0.5% CMC/1% Lutrol in deionized water. To prepare the vehicle, the required amount of CMC was weighed and dissolved in deionized water using a Waring blender. The required amount of Lutrol F68 was weighed and slowly added to the Waring blender while mixing. […]
as §3, with “0.5% CMC/1% Lutrol F68 suspension” for “PEG-400 solution”, “MB07811” for “Compound I”, “[…]” for “mg/kg”, “(fT3), and” for “(fT3),”, “(TSH). […]” for “(TSH), and plasma drug levels.”
Twelve beagle dogs (9-15 kg) were randomized into 6 dosing groups (1 male and 1 female/group) and gavaged once-daily with a PEG-400 solution of Compound I at doses of 0.1, 0.3, 1, 3, or 10 mg/kg or with vehicle for 14 days. […] Blood samples were collected at baseline and appropriate time intervals thereafter and analyzed for total plasma cholesterol levels, serum levels of total T4 (tT4), free T4 (fT4), total T3 (tT3), free T3 (fT3), and thyroid stimulating hormone (TSH), and for plasma drug levels

[6] = system: fT3 and fT4 levels in dog serum; assay: Ex vivo effect on fT3 and fT4 levels in dog serum (RIA); conditions: 1 h at 37° C., 1-100 μM tested
Description: (§4) Compound I was tested to measure its ex vivo effects at concentrations ranging from 0 to 100 μM on the free 3,5,3′-triiodothyronine (fT3) and the free 3,5,3′,5′ tetraiodothyronine (fT4) levels in human, monkey, dog, and rat sera.
(§5) Stock solution of Compound I was prepared in 100% DMSO. The test articles were combined with either human, monkey, dog or rat serum in a microcentrifuge tube at concentrations of 1, 3, 10, 30, and 100 μM, and incubated at 37° C. with agitation (800 rpm) using a Thermomixer R (Eppendorf, Inc.; Westbury, N.Y.) for 1 h. The DMSO concentration in the serum incubations was kept constant at 1%. Following the serum incubations, fT3 and T4 quantification was accomplished using the GammaCoat™ FT3 and the GammaCoat™ FT4 RIA kits, respectively. The kits were used according to the manufacturer's recommendations. The T3 assay specifications indicate 0.2% cross-reactivity with T4, while the T4 assay specifications indicate 0.5% cross-reactivity with T3. In these […] assays, a shaking water bath and a Wallac Wizard 1470 automatic gamma counter (Perkin Elmer, Inc.; Waltham, Mass.) were used. At each concentration tested, a background signal was subtracted from the data. This background signal was determined in samples of the test articles in PBS in the absence of serum. All assays were performed in duplicate.

[7] = system: fT3 and fT4 levels in monkey serum; assay: Ex vivo effect on fT3 and fT4 levels in monkey serum (RIA); conditions: 1 h at 37° C., 1-100 μM tested
Description: as §4, §5

[8] = system: fT3 and fT4 levels in rat serum; assay: Ex vivo effect on fT3 and fT4 levels in rat serum (RIA); conditions: 1 h at 37° C., 1-100 μM tested
Description: as §4, §5

[9] = system: fT3 and fT4 levels in human serum; assay: Ex vivo effect on fT3 and fT4 levels in human serum (RIA)
Description: as §4, §5

[10] = all five doses 0.1, 0.3, 1, 3, 10 mg/kg, baseline, 8-day, 15-day

SMILES: N[C@@H](Cc1cc(I)c(Oc2ccc(O)c(I)c2)c(I)c1)C(=O)O [Compound T3, 3,5,3′-triiodo-L-thyronine, reference compound]
- magnitude of cholesterol lowering versus Compound I at its two highest doses ([1]; T3 0.1 mg/kg, Compound I 30 and 100 mg/kg): comparable

SMILES: Cc1cc(OCP(=O)(OCOC(=O)C(C)(C)C)OCOC(=O)C(C)(C)C)cc(C)c1Cc1ccc(O)c(Cc2ccccc2)c1 [Compound I]
- reduction of total plasma cholesterol levels, dose dependent [2]: 15-38%
- reduction of serum fT3 ([3]; 14 days, highest dose group 10 mg/kg/day): about 45%
- reduction of serum tT4 from baseline ([3]; Day 15, 1 mg/kg/day): about 29%
- tT4 levels reduced relative to baseline (in the fT3 paragraph, FIG. 9) ([3]; Day 15, 10 mg/kg/day): ~45%
- reduction of serum tT4 from baseline ([3]; Day 15, 0.1, 0.3 and 3 mg/kg/day): 6.7-9.5%
- change of serum TSH levels from baseline ([3]; Day 15, 0.1 to 10 mg/kg/day): no meaningful changes; also recorded: did not show any effect; also recorded: essentially unaffected
- reduction of serum fT4 from baseline ([3]; Day 15, all Compound I treated groups, not dose dependent, vehicle about 19%): 13-32%
- reduction of serum fT3 from baseline ([3]; Day 15, doses up to and including 3 mg/kg/day): 8-20%
- reduction of serum tT3 from baseline ([3]; Day 15, treatment groups, not dose dependent, vehicle about 13%): 8-15%
- TFT effects greater than Compound MB07811 [4]: no evidence
- cardiac or liver necrosis [4]: no evidence
- deaths or adverse effects on body weight, food consumption, hematology, serum chemistry or urinalysis, or macroscopic or microscopic pathology [4]: no deaths or adverse effects
- effect on T4 (tT4) levels in comparison [5, 10]: reduced effect
- effect on serum TSH level in comparison with MB07811 [5, 10]: no effect
- effect on the thyroid hormone axis (T4 and TSH) versus MB07811 ([5]; dog, in vivo): much reduced effect
- highest concentration at which no increase in fT3 level was observed [6]: 100 µM
- highest concentration at which no increase in fT4 level was observed [6]: 100 µM
- highest concentration at which no increase in fT3 level was observed [7]: 30 µM
- highest concentration at which no increase in fT4 level was observed [7]: 100 µM
- highest concentration at which no increase in fT3 level was observed [8]: 100 µM
- highest concentration at which no increase in fT4 level was observed [8]: 100 µM
- ED50 ([1]; Rattus norvegicus, single oral dose, read-out: ED50 (dose that elicits a half-maximal reduction in total plasma cholesterol levels from baseline)): ~2 mg/kg
- concentration at which no effect on fT3 was shown [9]: less than 30
- concentration at which no effect on fT4 was shown [9]: less than 100 μM
- highest concentration at which no increase in fT3 level was observed ([9]; 1 h at 37° C., 1-100 μM tested): 30 µM
- highest concentration at which no increase in fT4 level was observed ([9]; 1 h at 37° C., 1-100 μM tested): 100 µM
